Here are results for 14 compounds from patent publication US20250018049A1, “COMPOUNDS FOR DEGRADING CYCLIN-DEPENDENT KINASE 2 VIA UBIQUITIN PROTEOSOME PATHWAY” (NIKANG THERAPEUTICS, INC., priority 2020, published 2025).

Each structure is given as a SMILES string.

Assay [1] concerns the target T1, CDK2 (Homo sapiens, UniProt P24941). As to the kind of experiment: Phospho-Rb HTRF measurement in OVCAR3 cells (inhibition of CDK2). The note with it: pRB(S807/811) assay, 24 h compound treatment. More on the design: High-Throughput Measurement of Cellular Endogenous CDK2; endogenous in cells; host or cells: OVCAR3. The assay is classed as cell-based. The protocol: Phosphorylation of RB protein at S780 and S807/811 were measured using HTRF phospho-RB cellular kits (Cat #64RBS780PEG and 64RBS807PEG) from Cisbio.
On Day 1, OVCAR3 or KYSE520 cells were seeded into 96-well tissue-culture treated plates at 20,000 cells/well in 200 μL and incubated overnight at 37° C. in CO2 atmosphere. On Day 2, the cells were treated with test compounds at concentrations from 0.3 to 10,000 nM using HP D300 digital dispenser. Twenty-four hours after compound treatment, cell culture media was removed by flicking the plate and tapping the plate against clean paper towel. Immediately 30 μL 1× lysis buffer was supplemented from the kit and the plate was incubated at room temperature on shaker for 30 min. After homogenization by pipetting up and down, 8 μL cell lysate from 96-well cell culture plate was transferred to 384-well small volume white detection plate. 2 μL premixed detection solution was added and the plate was covered with sealer. To prepare the detection solution, d2 conjugated-phospho-RB antibody and Eu-cryptate conjugated phosphor-RB antibody were diluted into detection buffer following manufacturer's instruction. Detection plates were incubated for 4 h at room temperature and read on ClarioStar (BMG Labtech) in TR-FRET mode (665 nM and 620 nM). The TR-FRET ratio (665 nM/620 nM) was plotted against the compound concentration and normalized to DMSO controls. Half maximal inhibition concentration (IC50) values are calculated with a four-parameter logistic fit using GraphPad Prism (version 8; La Jolla, CA).
Background: Time-resolved FRET reads energy transfer from a long-lived donor to a nearby acceptor.

The target of assay [2] is T1, CDK2. As to the kind of experiment: NanoBRET CDK2 engagement assay. The assay is classed as cell-based. Also noted: expressed in transfected cells. The note with it: OVCAR3 cells with stable CDK2-Luciferase vector, 24 hours treatment. The procedure: OVCAR3 cells with stable transfection of CDK2-Luciferase vector were seeded into 96-well plate at a density of 20,000 cells per well, 50 μL Opti-MEM medium supplemented with 1% FBS. Following morning, cells were treated with compounds of the disclosure, with starting concentration at 3 μM and ½ log dilution down to 0.3 nM for 24 hours at 37° C. DMSO treatment serves as control. Compound engagement was then measured using NanoBRE™ Kinase Kit from Promega (Part Number: CS1810C122, NanoBRET™ TE Kinase Kit #10, 1K) following manufacturer's instruction. For 24 hours treatment, tracer was added only for the last 2 hours. Briefly, 2.5 μL of complete 20× NanoBRET Tracer was added to the cells in suspension. Immediately prior to BRET measurements, prepare 3× Complete NanoBRET® Nano-Glo® Substrate in Opti-MEM without serum and phenol red. Without any delay, 25 μL per well of 3× Complete NanoBRET™ Nano-Glo® Substrate for a 96-well plate was added and mixed well. Signal was then read on a CLARIOstar® plate reader (measure donor emission (e.g., 450 nm) and acceptor emission (e.g., 610 nm or 630 nm) using a NanoBRET™-compatible luminometer. Target engagement was calculated with DMSO treatment as 100% signal, and IC50 was calculated by GraphPad Prism 9.

By IC50 is commonly meant the midpoint of a concentration-inhibition curve. Read a low IC50 as greater potency. Regarding `O=C1CCC(N2C(=O)c3ccc(CN4CC(Oc5ccc(S(=O)(=O)N6CCC(Nc7ncc8ccc(=O)n(C9CCCC9)c8n7)CC6)cc5)C4)cc3C2=O)C(=O)N1` (stereo not shown) [compound 8, 5-((3-(4-((4-((8-cyclopentyl-7-oxo-7,8-dihydro-pyrido[2,3-d]pyrimidin-2-yl)amino)piperidin-1-yl)sulfonyl)phenoxy)azetidin-1-yl)methyl)-2-(2,6-dioxopiperidin-3-yl)isoindoline-1,3-dione], the values for the half-maximal inhibitory concentration (IC50) on CDK2 [1] and against CDK2 [2] were 438 nM and 257 nM, respectively.
Turning to `Cn1c(=O)n(C2CCC(=O)NC2=O)c2cccc(C3CN(Cc4cccc(S(=O)(=O)N5CCC(Nc6ncc7ccc(=O)n(C8CCCC8)c7n6)CC5)c4)C3)c21` (stereo not shown) [Compound 40, 3-(4-(1-(3-((4-((8-cyclopentyl-7-oxo-7,8-dihydropyrido[2,3-d]pyrimidin-2-yl)amino)piperidin-1-yl)sulfonyl)benzyl)azetidin-3-yl)-3-methyl-2-oxo-2,3-dihydro-1H-benzo[d]imidazol-1-yl)piperidine-2,6-dione], the IC50 on CDK2 [1] was found to be 135 nM; against CDK2 [2], 297 nM.
For `CO[C@H]1CN(S(=O)(=O)c2cccc(CN3CCN(c4cc5c(cc4F)C(=O)N(C4CCC(=O)NC4=O)C5=O)CC3)c2)CC[C@@H]1Nc1ncc2ccc(=O)n(C3CCCC3)c2n1` (stereo partly drawn) [Compound 64, 5-(4-(3-(((3S,4S)-4-((8-cyclopentyl-7-oxo-7,8-dihydropyrido[2,3-d]pyrimidin-2-yl)amino)-3-methoxypiperidin-1-yl)sulfonyl)benzyl)piperazin-1-yl)-2-(2,6-dioxopiperidin-3-yl)-6-fluoro-isoindoline-1,3-dione] the same measures were 7940 nM and 3040 nM.
Taken in the same sequence, the figures for `O=C1CCC(N2C(=O)c3cccc(CCCOCCOCCNS(=O)(=O)N4CCC(Nc5ncc6ccc(=O)n(C7CCCC7)c6n5)CC4)c3C2=O)C(=O)N1` (stereo not shown) [Compound 11, 4-((8-cyclopentyl-7-oxo-7,8-dihydropyrido[2,3-d]pyrimidin-2-yl)amino)-N-(2-(2-(3-(2-(2,6-dioxopiperidin-3-yl)-1,3-dioxoisoindolin-4-yl)-propoxy)ethoxy)ethyl)piperidine-1-sulfonamide] were 2060 nM and 499 nM.
For `Cn1c(=O)n(C2CCC(=O)NC2=O)c2cccc(C3CCN(C4CN(c5cccc(S(=O)(=O)N6CCC(Nc7ncc8ccc(=O)n(C9CCCC9)c8n7)CC6)c5)C4)CC3)c21` (stereo not shown) [Compound 72, 3-(4-(1-(1-(3-((4-((8-cyclopentyl-7-oxo-7,8-dihydropyrido[2,3-d]pyrimidin-2-yl)amino)-piperidin-1-yl)sulfonyl)phenyl)azetidin-3-yl)piperidin-4-yl)-3-methyl-2-oxo-2,3-dihydro-1H-benzo[d]imidazol-1-yl)piperidine-2,6-dione] the same measures were 355 nM and 425 nM.
For the compound `Cn1c(=O)n(C2CCC(=O)NC2=O)c2cccc(CCCOCCNS(=O)(=O)N3CCC(Nc4ncc5ccc(=O)n(C6CCCC6)c5n4)CC3)c21` (stereo not shown) [Compound 18, 4-((8-cyclopentyl-7-oxo-7,8-dihydropyrido[2,3-d]pyrimidin-2-yl)amino)-N-(2-(3-(1-(2,6-dioxopiperidin-3-yl)-3-methyl-2-oxo-2,3-dihydro-1H-benzo[d]imidazol-4-yl)propoxy)-ethyl)piperidine-1-sulfonamide], the concentration for half-maximal inhibition (IC50) was determined as 700 nM at CDK2 [1] and 188 nM against CDK2 [2].
For `CN(CCCOCCCc1cccc2c1C(=O)N(C1CCC(=O)NC1=O)C2=O)S(=O)(=O)N1CCC(Nc2ncc3ccc(=O)n(C4CCCC4)c3n2)CC1` (stereo not shown) [Compound 10, 4-((8-cyclopentyl-7-oxo-7,8-dihydropyrido[2,3-d]-pyrimidin-2-yl)amino)-N-(3-(3-(2-(2,6-dioxo-piperidin-3-yl)-1,3-dioxoisoindolin-4-yl)-propoxy)propyl)-N-methylpiperidine-1-sulfonamide] the same measures were 3790 nM and 791 nM.
Taken in the same sequence, the figures for `O=C1CCC(N2Cc3c(OCCN4CCC(Oc5cccc(S(=O)(=O)N6CCC(Nc7ncc8ccc(=O)n(C9CCCC9)c8n7)CC6)c5)CC4)cccc3C2=O)C(=O)N1` (stereo not shown) [Compound 29, 3-(4-(2-(4-(3-((4-((8-cyclopentyl-7-oxo-7,8-dihydropyrido[2,3-d]pyrimidin-2-yl)amino)-piperidin-1-yl)sulfonyl)phenoxy)piperidin-1-yl)ethoxy)-1-oxoisoindolin-2-yl)piperidine-2,6-dione] were 216 nM and 426 nM.
For `O=C1CCC(N2C(=O)c3ccc(CN4CC(Oc5cccc(S(=O)(=O)N6CCC(Nc7ncc8ccc(=O)n(C9CCCC9)c8n7)CC6)c5)C4)cc3C2=O)C(=O)N1` (stereo not shown) [Compound 17, 5-((3-(3-((4-((8-cyclopentyl-7-oxo-7,8-dihydro-pyrido[2,3-d]pyrimidin-2-yl)amino)piperidin-1-yl)sulfonyl)phenoxy)azetidin-1-yl)methyl)-2-(2,6-dioxopiperidin-3-yl)isoindoline-1,3-dione] the same measures were 245 nM and 450 nM.
Regarding `O=C1CCC(N2C(=O)c3cc(F)c(N4C5CCC4CN(Cc4cccc(S(=O)(=O)N6CCC(Nc7ncc8ccc(=O)n(C9CCCC9)c8n7)CC6)c4)C5)cc3C2=O)C(=O)N1` (stereo not shown) [Compound 47, 5-(3-(3-((4-((8-cyclopentyl-7-oxo-7,8-dihydro-pyrido[2,3-d]pyrimidin-2-yl)amino)piperidin-1-yl)sulfonyl)benzyl)-3,8-diazabicyclo[3.2.1]octan-8-yl)-2-(2,6-dioxopiperidin-3-yl)-6-fluoro-isoindoline-1,3-dione], the IC50 at CDK2 [1] was 4030 nM; against CDK2 [2], 590 nM.
Taken in the same sequence, the figures for `O=C(COc1cccc2c1C(=O)N(C1CCC(=O)NC1=O)C2=O)NCCOCCN1CCN(S(=O)(=O)N2CCC(Nc3ncc4ccc(=O)n(C5CCCC5)c4n3)CC2)CC1` (stereo not shown) [compound 3, N-(2-(2-(4-((4-((8-cyclopentyl-7-oxo-7,8-dihydropyrido[2,3-d]pyrimidin-2-yl)amino)-piperidin-1-yl)sulfonyl)piperazin-1-yl)-ethoxy)ethyl)-2-((2-(2,6-dioxopiperidin-3-yl)-1,3-dioxoisoindolin-4-yl)oxy)acetamide] were 2670 nM and 3040 nM.
Taken in the same sequence, the figures for `Cn1nc(N2CCC(=O)NC2=O)c2ccc(C3CCN(Cc4cccc(S(=O)(=O)N5CCC(Nc6ncc7ccc(=O)n(C8CCCC8)c7n6)CC5)c4)CC3)cc21` [Compound 71, 1-(6-(1-(3-((4-((8-cyclopentyl-7-oxo-7,8-dihydropyrido[2,3-d]pyrimidin-2-yl)amino)-piperidin-1-yl)sulfonyl)-benzyl)piperidin-4-yl)-1-methyl-1H-indazol-3-yl)dihydropyrimidine-2,4(1H,3H)-dione] were 10.3 nM and 167 nM.
Taken in the same sequence, the figures for `O=C1CCC(N2C(=O)c3cc(F)c(N4CCN(Cc5cccc(S(=O)(=O)N6CCC(Nc7ncc8cc(C(F)F)c(=O)n(C9CCCC9)c8n7)CC6)c5)CC4)cc3C2=O)C(=O)N1` (stereo not shown) [Compound 45, 5-(4-(3-((4-((8-cyclopentyl-6-(difluoromethyl)-7-oxo-7,8-dihydropyrido[2,3-d]pyrimidin-2-yl)-amino)piperidin-1-yl)sulfonyl)-benzyl)piperazin-1-yl)-2-(2,6-dioxopiperidin-3-yl)-6-fluoro-isoindoline-1,3-dione] were 267 nM and 378 nM.
On to `Cn1c(=O)n(C2CCC(=O)NC2=O)c2cccc(C#CCOC3CCN(S(=O)(=O)N4CCC(Nc5ncc6ccc(=O)n(C7CCCC7)c6n5)CC4)CC3)c21` (stereo not shown) [Compound 14, 3-(4-(3-((1-((4-((8-cyclopentyl-7-oxo-7,8-dihydropyrido[2,3-d]pyrimidin-2-yl)amino)-piperidin-1-yl)sulfonyl)piperidin-4-yl)oxy)prop-1-yn-1-yl)-3-methyl-2-oxo-2,3-dihydro-1H-benzo[d]imidazol-1-yl)piperidine-2,6-dione], for which the IC50 is 633 nM against CDK2 [1] and 668 nM at CDK2 [2].
